Experimental data as given in article PMC8751734 (Cell Chemical Biology, 2022).

Molecular target: SARS-CoV-2 PL^pro (Severe acute respiratory syndrome coronavirus 2, UniProt P0DTD1)
Type: biochemical

Compound	dose-dependent inhibition of PL^pro, compared with ACF
CN(C)c1ccc2cc3ccc(N(C)C)cc3nc2c1 [acridine orange base]	less active than the parent compound
Nc1ccc2cc3ccc(N)cc3nc2c1.O=S(=O)(O)O [acridine-3,6-diamine sulfate]	less active than the parent compound
